Experimental data from patent US20240300934A1, “COMPOUNDS FOR MODULATING MYCOBACTERIUM TUBERCULOSIS RESPONSE” (priority 2021, published 2024).
≈ marks a conversion by molar mass, not a printed value. Marks after values point to notes of the source that are not given here.

Experiments:
[1] = test system: rv2390c′::GFP reporter Mtb strain; assay type: cell-based, Mycobacterium tuberculosis; conditions: for rv2390c′::GFP Cl− response phenotype: compared to C6
Mtb in J774 cells = experiment: Mtb growth in J774 macrophage-like cells (mKO fluorescence); assay type: cell-based, Mycobacterium tuberculosis; conditions: for Inhibition of Mtb growth in J774 cells phenotype: compared to C6; for % Reduction of Intracellular Infection (J774.1 cells) at 10 μM cmpd: 10 μM compound
Experimental: For the tertiary screen of selected hit compounds in J774 murine macrophage-like cells, 30,000 J774 cells/well were seeded in bar-coded 384-well black, clear bottom plates in a 30 μl volume in J774 infection media (DMEM+10% FBS+1 mM sodium pyruvate+2 mM L-glutamine) using a ThermoFisher Multidrop Combi reagent dispenser, one day prior to assay start. On the day of the assay, log-phase Mtb constitutively expressing mKO were pelleted and resuspended in 1 ml basal uptake buffer (0.5% bovine serum albumin+25 mM dextrose+0.5 mM MgCl2+1 mM CaCl2+0.1% gelatin in phosphate buffered saline (PBS), passed 6× though a tuberculin syringe with a 25 G×5/8″ needle, then resuspended in J774 infection media to a final OD600=0.2. 10 μl of this bacterial suspension was added to each well of the 384-well plates containing the J774 cells, followed by addition of 10 μl of the appropriate compounds (pre-aliquoted in v-bottom plates in a 1:1 mix of PBS:J774 infection media). Addition of Mtb and compounds were conducted using a Janus Ministation. For each test plate, two columns of controls (16 wells each) were included, with one column consisting of treatment with DMSO as a carrier control (negative control), and the other column consisting of treatment with 5 μM rifampicin (positive control). This tertiary assay was done as a dose-response assay in duplicate runs, with compounds tested beginning at a final concentration of 20 μM and two-fold dilutions down to 0.039 μM. Plates were kept in humidified ziplock bags in a 37° C., 5% CO2 incubator. 6 days post-infection, mKO fluorescence signal was read using a PerkinElmer EnVision multimode plate reader (bottom read filter, excitation 530/8 nm, Bodipy TMR D555 single mirror, emission 579/25 nm). mKO fluorescence in DMSO-treated control samples were defined as 100% growth, and fluorescence observed in treatment conditions calculated as a percentage from that set value.
For J774 infection in 96-well plates, 180,000 J774 cells were seeded per well in 180 μl of J774 infection media one day prior to infection. On the day of the assay, log-phase Mtb constitutively expressing mKO were pelleted and resuspended in 1 ml basal uptake buffer, passed 6× though a tuberculin syringe with a 25 G×5/8″ needle, then resuspended in J774 infection media to a final OD600=0.2. Media was removed from 96-well plate containing the J774 cells, with 140 μl of fresh J774 infection media added back to each well. 40 μl of the Mtb suspension at OD600=0.2 was added to each well, followed by addition of appropriate concentration of compound or DMSO in a 20 μl final volume in J774 infection media (compound final concentration 10 μM, rifampicin final concentration 5 μM, DMSO final concentration 0.1%/well). Bacterial mKO fluorescence was read immediately after infection using a Biotek Synergy Neo2 microplate reader (bottom read monochromator, excitation 543/10 nm, emission 565/10 nm), and again 6 days post-infection. Plates were kept in humidified ziplock bags in a 37° C., 5% CO2 incubator. mKO fluorescence in DMSO-treated control samples were defined as 100% growth, and fluorescence observed in treatment conditions calculated as a percentage from that set value.

Mtb = Mtb growth assay in cholesterol media (OD600); assay type: cell-based, Mycobacterium tuberculosis
[2] = Kinetic aqueous solubility in pH 7.4 PBS; assay type: physicochemical; conditions: PBS, pH 7.4, aqueous buffer, kinetic from dmso stock; Table 2; read-out: Kinetic Aqueous Solubility S
Experimental: (§1) Assays examining mouse and human liver microsomal stability, kinetic aqueous solubility, mouse and human plasma protein binding and stability, and human cytochrome P450 inhibition characteristics of the compounds were run by BioDuro, Incorporated, using standard protocols as previously described (Wang et al, 2020). hERG inhibition assays were also performed by BioDuro, Incorporated.

[3] = Mouse liver microsomal stability; assay type: in vitro ADME; conditions: mouse liver microsomes; read-out: MLM t1/2
Experimental: as §1

[4] = Mouse pharmacokinetics, single oral dose; assay type: in vivo, CD-1 mice; conditions: female, single 25 mg/kg po dose; for Kp at 5 h: CD-1, mouse, lung vs plasma, read-out: Mouse PK Clung/Cplasma at t = 5 h; for AUC(0-t): mouse, plasma, CD-1 mice, read-out: Mouse PK AUC0-5h
Experimental: Blood samples were collected in K2EDTA coated tubes pre-dose, 0.5, 1, 3 and 5 hrs post-dose, placed on ice, and centrifuged to recover plasma. The recovered plasma was kept at −80° C. as needed prior to analysis, which was performed as previously described (Wang et al, 2020). In brief, a Sciex Applied Biosystems Qtrap 4000 triple-quadrupole mass spectrometer coupled to an Agilent 1260 HPLC system was used for HPLC coupled to tandem mass spectrometry (LC-MS/MS) quantitative analysis of the samples, with chromatography attained using an Agilent Zorbax SB-C8 column (2.1×30 mm; particle size, 3.5 μm) and a reverse phase gradient elution. The aqueous mobile phase consisted of Milli-Q deionized water with 0.1% formic acid (A), while the organic mobile phase was 0.1% formic acid in acetonitrile (B). The gradient set-up was as follows: 5-90% B over 2 mins, 1 min at 90% B, then an immediate drop to 5% B and an additional 1 min at 5% B. Quantification of molecules was carried out via multiple-reaction monitoring of parent/daughter transitions in electrospray positive-ionization mode, and sample analyses accepted if quality control and standard samples had concentrations within 20% of the nominal concentration. Preparation of compounds for generation of standard curves and quality control spiking solutions were performed as previously described (Wang et al, 2020). Data were processed using Analyst software (Version 1.6.2; Applied Biosystems Sciex).

SMILES	rv2390c′::GFP Cl− response phenotype [1]	Inhibition of Mtb growth in J774 cells phenotype (Mtb in J774 cells)	other results
CCSc1ncc(CN2CCN(c3nc4cccc(C(F)(F)F)c4o3)CC2)cn1 [JSF-4601, 2-(4-((2-(ethylthio)pyrimidin-5-yl)methyl)piperazin-1-yl)-7-(trifluoromethyl)benzo[d]oxazole]	Y		
CCSc1ncc(CN2CCN(c3nc4cc(Cl)ccc4o3)CC2)cn1 [JSF-4477, 5-chloro-2-(4-((2-(ethylthio)pyrimidin-5-yl)methyl)piperazin-1-yl)benzo[d]oxazole]	Y		
CCSc1ncc(CN2CCN(c3nc4ccc(F)cc4o3)CC2)cn1 [JSF-4509, 2-(4-((2-(ethylthio)pyrimidin-5-yl)methyl)piperazin-1-yl)-6-fluorobenzo[d]oxazole]	Y		
CCSc1ncc(CN2CCN(c3nc4ccc(C(F)(F)F)cc4o3)CC2)cn1 [JSF-4507, 2-(4-((2-(ethylthio)pyrimidin-5-yl)methyl)piperazin-1-yl)-6-(trifluoromethyl)benzo[d]oxazole]	Y	Y	
CCSc1ncc(CN2CCN(c3nc4cccc(C)c4o3)CC2)cn1 [JSF-4562, 2-(4-((2-(ethylthio)pyrimidin-5-yl)methyl)piperazin-1-yl)-7-methylbenzo[d]oxazole]	Y	Y	
CCSc1ncc(C(=O)N2CCN(c3nc4ccccc4o3)CC2)cn1 [JSF-4683, (4-(benzo[d]oxazol-2-yl)piperazin-1-yl)(2-(ethylthio)pyrimidin-5-yl)methanone]	N		
CCSc1ncc(CN2CCN(c3nc4ccccc4s3)CC2)cn1 [JSF-4298, 2-(4-((2-(ethylthio)pyrimidin-5-yl)methyl)piperazin-1-yl)benzo[d]thiazole]	Y		rv2390c′::GFP reporter signal upon Mtb exposure to high [Cl−] (in words) ([1]; 10 μM, 250 mM NaCl): continuing to demonstrate the phenotypes seen with the parental C6 compound; Mtb growth in J774 cells (in words) (Mtb in J774 cells; 10 μM, 6 days post-infection): continuing to demonstrate the phenotypes seen with the parental C6 compound; Mtb growth in cholesterol media (in words) (Mtb; 10 μM, OD600): continuing to demonstrate the phenotypes seen with the parental C6 compound; Growth inhibition in cholesterol media phenotype (Mtb; compared to C6): Y
CCSc1ncc(CN2CCN(c3nc4c(Cl)cccc4o3)CC2)cn1 [JSF-4604, 4-chloro-2-(4-((2-(ethylthio)pyrimidin-5-yl)methyl)piperazin-1-yl)benzo[d]oxazole]	Y	Y	
CCSc1ncc(CN2CCN(c3nc4c(F)cccc4o3)CC2)cn1 [JSF-4602, 2-(4-((2-(ethylthio)pyrimidin-5-yl)methyl)piperazin-1-yl)-4-fluorobenzo[d]oxazole]	Y	Y	
CCSc1ncc(CN2CCN(c3nc4ccc(Cl)cc4o3)CC2)cn1 [JSF-4467, 6-chloro-2-(4-((2-(ethylthio)pyrimidin-5-yl)methyl)piperazin-1-yl)benzo[d]oxazole]	Y	Y	% Reduction of Intracellular Infection (J774.1 cells) at 10 μM cmpd (Mtb in J774 cells): 50.6 ± 2.0%; solubility kinetic [2]: 8.3 µM (≈ 3.24 µg/mL); half-life [3]: 54.3 min; Kp at 5 h [4]: 0.36; AUC(0-t) [4]: 41.7 µg·h/mL
CCSc1ncc(CNCCNc2nc3ccccc3o2)cn1 [JSF-4547, N^1-(benzo[d]oxazol-2-yl)-N^2-((2-(ethylthio)pyrimidin-5-yl)methyl)ethane-1,2-diamine]	N	N	
CCSc1ncc(CN2CCN(c3nc4cccc(F)c4o3)CC2)cn1 [JSF-4516, 2-(4-((2-(ethylthio)pyrimidin-5-yl)methyl)piperazin-1-yl)-7-fluorobenzo[d]oxazole]	N	Y	
CCSc1ncc(CN2CCN(c3nc4cc(F)c(F)cc4o3)CC2)cn1 [JSF-4525, 2-(4-((2-(ethylthio)pyrimidin-5-yl)methyl)piperazin-1-yl)-5,6-difluorobenzo[d]oxazole]	Y	Y	% Reduction of Intracellular Infection (J774.1 cells) at 10 μM cmpd (Mtb in J774 cells): 46.3 ± 2.9^b %; solubility kinetic [2]: 0.952 µM (≈ 0.373 µg/mL); half-life [3]: 39.8 min; Kp at 5 h [4]: 0.33; AUC(0-t) [4]: 29.7 µg·h/mL
CCSc1ncc(CN2CCN(c3nc4ccc(C)cc4o3)CC2)cn1 [JSF-4527, 2-(4-((2-(ethylthio)pyrimidin-5-yl)methyl)piperazin-1-yl)-6-methylbenzo[d]oxazole]	Y	Y	% Reduction of Intracellular Infection (J774.1 cells) at 10 μM cmpd (Mtb in J774 cells): 53.8 ± 2.1%; solubility kinetic [2]: 13.7 µM (≈ 5.06 µg/mL); half-life [3]: 38.7 min; Kp at 5 h [4]: 0.55; AUC(0-t) [4]: 16.3 µg·h/mL
CCSc1ncc(CN2CCN(c3nc4cccc(Cl)c4o3)CC2)cn1 [JSF-4603, 7-chloro-2-(4-((2-(ethylthio)pyrimidin-5-yl)methyl)piperazin-1-yl)benzo[d]oxazole]	Y	Y	
CCSc1ncc(CN2CCN(c3nc4cc(OC)ccc4o3)CC2)cn1 [JSF-4528, 2-(4-((2-(ethylthio)pyrimidin-5-yl)methyl)piperazin-1-yl)-5-methoxybenzo[d]oxazole]	N		
CSc1ncc(CN2CCN(c3nc4ccccc4o3)CC2)cn1 [JSF-4730, 2-(4-((2-(methylthio)pyrimidin-5-yl)methyl)piperazin-1-yl)benzo[d]oxazole]	Y	Y	
CCSc1ncc(CN2CCN(c3nc4c(C)cccc4o3)CC2)cn1 [JSF-4551, 2-(4-((2-(ethylthio)pyrimidin-5-yl)methyl)piperazin-1-yl)-4-methylbenzo[d]oxazole]	Y	Y	
CCSc1ncc(CN2CCN(c3nc4cc(C)ccc4o3)CC2)cn1 [JSF-4471, 2-(4-((2-(ethylthio)pyrimidin-5-yl)methyl)piperazin-1-yl)-5-methylbenzo[d]oxazole]	Y	Y	
CCSc1ncc(CN2CCN(c3ncco3)CC2)cn1 [JSF-4747, 2-(4-((2-(ethylthio)pyrimidin-5-yl)methyl)piperazin-1-yl)oxazole]	Y		
